Experimental data reported in patent US11596716B2, “Compounds and matrices for use in bone growth and repair” (Human BioMolecular Research Institute, priority 2013, dated 2023).
One block for each compound: values may come before it.

What was measured:
Wnt transcription = assay: WNT transcriptional reporter assay (Super(8×)TOPflash luciferase, HEK293T cells); type: cell-based; details: Wnt3A-expressing vector, 20 hrs, relative to cells treated with DMSO alone, read-out: Wnt transcription potency
From the text: Commercially available Super(8×)TOPflash vector driven by a (7×) TCF-firefly luciferase response element was transiently transfected into HEK293T cells, together with a TK-driven Renilla luciferase plasmid as an internal control to normalize the luminescence signal and a Wnt3A-expressing vector as the source of pathway activation. HEK293T cells were transfected with plasmids in DMEM plus 10% fetal bovine serum (FBS) for 8 hr, replated to 96-well plates in DMEM plus 10% FBS followed by treatment with compounds (1.6 nM to 5 M) (DMSO final concentration is 0.5%) for 20 hrs. Firefly and Renilla luciferase activities were measured and normalized by the Renilla luciferase values.

C2C12 cells [1] = assay: Alkaline Phosphatase (ALP) functional activity assay in C2C12 cells; type: cell-based, Mouse; details: for activation at 0.5 µM: Mus musculus, C2C12, 144 h, compounds of Formula VI, normalized to DMSO treatment
Procedure: Alkaline Phosphatase (ALP) Functional Activity Assay: C2C12 cells were plated into 12-well plates with 7,000 cells/well in 1 mL growth media. […] 1, 2, 3, or 4 in 0.1% DMSO was added (500 nM). Half the media was exchanged with fresh media containing compound every 48 hrs. After 6 days, media was removed, ALP Lysis Buffer (10 mM Tris-HCl pH 8.0, 1 mM MgCl2, and 1% Triton X100) added, and cell lysate obtained (10 min incubation at RT) by centrifugation (5 min at 3500× g at 4° C.). Para-nitrophenol phosphate (pNPP) (2 mg/mL) was incubated with 50 μl cell lysate (10 mins, 37° C.). After addition of […] 0.02 N NaOH, absorbance OD405 was measured. Protein concentration was determined by Bradford protein assay. Results of ALP activity were plotted as nM pNP hydrolyzed/mg total protein. After normalizing control samples (i.e., DMSO-treated samples) to one-fold, the fold-changes were plotted to indicate the relative ALP activity. […] This protocol was applied to hMSC and E15 cells as well.

C2C12 cells [2] = assay: qPCR detection of osteogenic markers in C2C12 cells; type: cell-based, Mouse; details: 500 nM, 6 days
C2C12 cells [3] = assay: Alizarin Red S staining (calcium deposition) in C2C12 cells; type: cell-based, Mouse; details: 500 nM, 25 days of treatment
Procedure: Alizarin Red S Staining: C2C12 cells were cultured as described for the ALP functional activity assay (above, except compound was added every 48 hr for 25 days), but using 48-well plate format. On day 25, medium was removed and the cells were washed with PBS (calcium and magnesium free). Cells were fixed with 70% ethanol at room temperature for 30 mins, rinsed with water 3×. Following removal of water, 200 μl of Alizarin Red S (2%, pH 4.1) was added to each well and incubated for at least 20 mins. The dye was removed and the cells were washed with excess H2O four times with gentle mixing. The cells were covered with water to prevent evaporation and analyzed by plate reader or microscope. This protocol was applied to hMSC and E15 cells.

C2C12 cells [4] = assay: Cell proliferation/viability assay (Resazurin / Alamar blue) in C2C12 cells; type: cell-based, Mouse
Procedure: Cell proliferation/viability assay: Cells were seeded at a density of 500 cells/well on 96-well plates. After 24 hr, compound (i.e., 5 nM, 50 nM, 500 nM or 5000 nM) was added to the cells in the presence or absence of calcium phosphate matrix (5 mg/mL). […] At the specified time, 1 μg of Resazurin was added to each well of the 96-well plate and the fluorescence signal at 590 nm (excitation at 530 nm) was immediately measured. Readings were designated as time zero values (value0h). Cells were incubated for 1 hr before a second fluorescence measurement at 590 nm was made (value1h). The difference in 1 hr and 0 h (value1h−value0h) readings were used to plot the fold-change in cell proliferation/viability after normalizing to control conditions (i.e., DMSO vehicle treatment). Compounds of Formula II or IV that activate Wnt signaling and compounds of Formula VI that activate TLR signaling pathways were analyzed. This protocol was applied to hMSC and E15 cells as well. Cell proliferation was not robust in keeping with a narrow number of cells highly committed to the bone cell lineage.

C2C12 cells [5] = assay: qPCR of apoptosis biomarkers (Bax and Fos) in C2C12 cells; type: cell-based, Mouse; details: 500 nM or 5 μM every 48 hrs, up to 25 days
hMSCs [6] = assay: Alkaline Phosphatase functional activity assay in hMSCs; type: cell-based, human; set-up: key to Alkaline Phosphatase activity, −matrix, 8 days / Alkaline Phosphatase activity, +matrix, 8 days / Alkaline Phosphatase activity, −matrix, 25 days / Alkaline Phosphatase activity, +matrix, 25 days: fold-change vs DMSO-treated control (control = 1); details: 500 nM
hMSCs [7] = assay: Alamar blue cell viability assay in hMSCs; type: cell-based, human; details: 500 nM, 25-day-old hMSCs
Procedure: Cell proliferation/viability assay: Cells were seeded at a density of 500 cells/well on 96-well plates. After 24 hr, compound (i.e., 5 nM, 50 nM, 500 nM or 5000 nM) was added to the cells in the presence or absence of calcium phosphate matrix (5 mg/mL). One-half of the media was replaced with fresh media containing compound every 48 hours for 8 days. At the specified time, 1 μg of Resazurin was added to each well of the 96-well plate and the fluorescence signal at 590 nm (excitation at 530 nm) was immediately measured. Readings were designated as time zero values (value0h). Cells were incubated for 1 hr before a second fluorescence measurement at 590 nm was made (value1h). The difference in 1 hr and 0 h (value1h−value0h) readings were used to plot the fold-change in cell proliferation/viability after normalizing to control conditions (i.e., DMSO vehicle treatment). Compounds of Formula II or IV that activate Wnt signaling and compounds of Formula VI that activate TLR signaling pathways were analyzed. This protocol was applied to hMSC and E15 cells as well. Cell proliferation was not robust in keeping with a narrow number of cells highly committed to the bone cell lineage.
The assay for cell proliferation followed the same procedure with hMSCs as described for C2C12 cells (Example 7).

hMSCs [8] = assay: qPCR of apoptosis biomarkers (Bax and Fos) in hMSCs; type: cell-based, human
hMSCs [9] = assay: Transwell migration of hMSCs to calcium phosphate matrix; type: cell-based, human; details: 500 nM
Procedure: Human MSC migration to the site of bone injury is an important part of the repair process. […] After 8 hrs, compounds were washed off the cells and cells placed in a traditional transwell migration system. The top reservoir contained serum-free DMEM and the bottom reservoir contained DMEM plus 2% FBS. After incubation overnight, non-migrated cells were removed, migrated cells (stuck in the bottom chamber) were then fixed with 70% EtOH (40 mins) and total migrated cells were counted under a microscope after staining with 1 mg/mL of crystal violet (1 hr). hMSCs treated with compound 2 (500 nM, 8 hr) induced a 10-fold greater cell migration to the matrix than DMSO-pre-treated cells under the conditions described above. In a separate experiment, matrix that was pre-coated with compound 4 (as prepared in Example 5) was placed in the bottom chamber and migration of hMSCs from the top chamber was evaluated. Compound 4-coated matrix induced a 2-fold increase in cell migration to the matrix compared to DMSO-treated cells.
hMSC migration was analyzed by using calcium phosphate matrix that had been pre-adsorbed with compounds 1 or 2 (500 nM, as described in Example 5) and studied in the transwell system (2% serum, described above). Compound 1 and 2 induced 3.5-fold and 1.9-fold more cell migration than non-coated ceramic. While non-limiting, these examples show the utility of the approach for increased cell migration and localization to the calcium phosphate ceramic matrix when compounds of the disclosure are present. Use of compounds of Formula II, IV, and VI to pre-coat the ceramic and also pretreat the cells is also of utility.

hMSCs [10] = assay: TLR4/TLR3 mRNA expression ratio by qPCR in hMSCs; type: cell-based, human; details: 500 nM, 8 days
From the text: TLRs are modulators of hMSC differentiation. TLRs (TLR1-10) mRNA could be detected by qPCR in hMSCs. TLR4 is a biomarker for osteogenesis and TLR3 is a biomarker for adipogenesis. […]

hMSCs [11] = assay: qPCR of target gene mRNA expression in hMSCs; type: cell-based, human; details: hMSCs, comparison with compound 3 and calcium phosphate ceramic
Procedure: qPCR detection of osteogenic markers: Cells were cultured with compound in the presence or absence of matrix as described above, but using 96-well plate format. Total RNA was extracted from cells (as above) using Trizol. cDNA was made using 750 ng of total RNA with Bio-Rad iscript kit and was diluted 20-fold before being used for qPCR. qPCR was conducted under the following conditions: 95° C., 2 min; 95° C., 10 s and 60° C., 45 s for 40 cycles; 60° C. for 71 cycles for melt curve. qPCR results were analyzed by the ΔΔCt method. 18s rRNA was used as an internal standard. This protocol was applied to hMSC and E15 cells.
Runx2 and BMP-2 are osteogenic markers; Axin2, Wnt3a, and Sox 9 are Wnt-inducible gene markers.
The assay for mRNA expression followed the same procedure with hMSCs as described for C2C12 cells (Example 7).

Solubility in water = type: physicochemical
[12] = matrix 5 mg/mL, mean +/− SD (n = 3)

EC50 (Wnt transcription): > 40 nM
Alkaline Phosphatase activity, +matrix, 8 days (hMSCs [6]; [12]): 2.6 ± 0.3
Alkaline Phosphatase activity, +matrix, 25 days (hMSCs [6]; [12]): 4.5 ± 0.4
Alkaline Phosphatase activity, −matrix, 25 days (hMSCs [6]; mean +/− SD (n = 3)): 2.6 ± 0.3
Alkaline Phosphatase activity, −matrix, 8 days (hMSCs [6]; mean +/− SD (n = 3), fold): 1.5 ± 0.1
Compound: Cc1nc2c(-c3ccccc3)cnn2c(NCCN(C)C)c1C [Compound 2, 3-phenyl-5,6-dimethyl-7-[N-(2-N,N-dimethylaminoethyl)amino]-pyrazolo[1,5-a]pyrimidine]
ALP activity, combination of compound and matrix compared to compound alone or matrix alone (C2C12 cells [1]; 500 nM, 6 day incubation, tricalcium phosphate ceramic matrix 5 mg/mL (FIG. 2)): synergistic increase in ALP activity
ALP activity fold-changes +/− SD, +matrix (C2C12 cells [1]; 500 nM, 6 days of culture, calcium phosphate ceramic 5 mg/mL): 23.6 ± 2.5 fold
ID3 mRNA expression, presence of matrix (C2C12 cells [2]): 1.7 fold
calcium deposition, absence of matrix (C2C12 cells [3]): 2.0 fold
calcium deposition, presence of matrix (C2C12 cells [3]): 2.3 fold
cell viability (Alamar blue) (C2C12 cells [4]; 500 nM every 48 hrs for 25 days): did not show a decrease in cell viability
gene expression of apoptosis biomarkers (Bax and Fos) (C2C12 cells [5]): unable to detect gene expression of typical apoptosis biomarkers
ALP functional activity, compound and matrix versus compound alone or matrix alone (hMSCs [6]; 8 and 25 day incubations, matrix 5 mg/mL (FIG. 3)): exceeded the effect of compound alone or matrix alone
cell viability (Alamar blue) (hMSCs [7]): no decrease in cell viability
gene expression of apoptosis biomarkers (Bax and Fos) (hMSCs [8]; 500 nM to 5 μM, up to 25 days): unable to detect gene expression of typical apoptosis biomarkers
cytotoxicity as determined by quantification of apoptosis (hMSCs [8]; hMSCs): no cytotoxicity
cell migration to the matrix, hMSCs pre-treated with compound, versus DMSO-pre-treated cells (hMSCs [9]; 8 hr pre-treatment, transwell overnight): 10 fold
cell migration to matrix pre-adsorbed with compound versus non-coated ceramic (hMSCs [9]; transwell, 2% serum): 1.9 fold
TLR4/TLR3 ratio, compound alone (hMSCs [10]): modest increase

solubility in water (Solubility in water): only sparingly soluble
Compound: O=C(C=Cc1ccc(O)cc1)C=C(O)C=Cc1ccc(O)cc1 [Compound 54, 1,7-Bis(4-hydroxyphenyl)-5-hydroxy-hepta-1,4,6-trien-3-one]
activation at 0.5 µM (C2C12 cells [1]; absence of matrix): 5 to 50%
activation at 0.5 µM (C2C12 cells [1]; presence of calcium phosphate matrix): 50 to 100%
increase in cell proliferation (Alamar Blue Assay) (C2C12 cells [4]; 50 nM, 3 days): 2 fold
robust mRNA up-regulation of VDR or ALP (hMSCs [11]): not observed
